Converted amounts (≈) assume the structure as drawn. Where two headings read alike, the source gives them in different places.
Experiments:
[1] = tested on: Staphylococcus aureus MRSA (COL); experiment: Broth microdilution MIC assay, Staphylococcus aureus MRSA (COL); assay type: cell-based; details: for Antibacterial activity Staphylococcus aureus (MRSA): MIC class score, MIC100, broth microdilution, COL strain
[2] = tested on: vancomycin-resistant Enterococcus faecium (ATCC51559); experiment: microbe, parasite or virus in culture; assay type: cell-based
[3] = tested on: Enterococcus faecalis (ATCC29212); experiment: Broth microdilution MIC assay, Enterococcus faecalis; assay type: cell-based; details: read-out: Antibacterial activity, EFs (Enterococcus faecalis), MIC class
[4] = tested on: Enterococcus faecium (AGR15, ATCCBAA-2127); experiment: Broth microdilution MIC assay, Enterococcus faecium; assay type: cell-based; details: ATCCBAA2127, read-out: Antibacterial activity, EFm (Enterococcus faecium), MIC class
[5] = tested on: vancomycin-resistant Enterococcus faecalis (ATCC51575); experiment: microbe, parasite or virus in culture; assay type: cell-based; details: ATCC51575; vancomycin-resistant Enterococcus faecalis; read-out: Antibacterial activity, VREFs (vancomycin-resistant EFs), MIC class
[6] = tested on: Mycobacterium smegmatis (mc(2)155); experiment: Broth microdilution MIC assay, Mycobacterium smegmatis
[7] = tested on: Streptococcus pneumoniae (Chester, ATCC49619); experiment: Broth microdilution MIC assay, Streptococcus pneumoniae; assay type: cell-based; details: for Antibacterial activity Streptococcus pneumoniae: MIC class score, MIC100, broth microdilution; for MIC: Streptococcus pneumoniae, ATCC49619, read-out: Antibacterial activity, SP (Streptococcus pneumoniae), MIC class
[8] = tested on: linezolid-resistant Staphylococcus aureus (from MRSA COL); experiment: Broth microdilution MIC assay, linezolid-resistant MRSA; assay type: cell-based; details: 24 h, read-out: Antibacterial activity, MRSA strains with additional resistance, L (linezolid), MIC class
[9] = tested on: daptomycin-resistant Staphylococcus aureus (from MRSA COL); experiment: Broth microdilution MIC assay, daptomycin-resistant MRSA; assay type: cell-based; details: 24 h, read-out: Antibacterial activity, MRSA strains with additional resistance, D (daptomycin), MIC class
[10] = tested on: MRSA (COL) resistant to triclosan; experiment: Broth microdilution MIC assay, triclosan-resistant MRSA; details: Staphylococcus aureus, read-out: Antibacterial activity, MRSA strains with additional resistance, T (triclosan), MIC class
[11] = tested on: Staphylococcus aureus MSSA (Newman); experiment: Broth microdilution MIC assay, Staphylococcus aureus MSSA (Newman); assay type: cell-based; details: for Antibacterial activity Staphylococcus aureus (MSSA): MIC class score, MIC100, broth microdilution, Newman strain; for MIC: Staphylococcus aureus, read-out: Antibacterial activity, MSSA (Staphylococcus aureus MSSA), MIC class
[12] = tested on: platensimycin-resistant Staphylococcus aureus (from MRSA COL); experiment: Broth microdilution MIC assay, platensimycin-resistant MRSA; assay type: cell-based; details: 24 h, read-out: Antibacterial activity, MRSA strains with additional resistance, P (platensimycin), MIC class
[13] = tested on: Staphylococcus epidermidis (PCI 1200, ATCC12228); experiment: Broth microdilution MIC assay, Staphylococcus epidermidis; assay type: cell-based; details: read-out: Antibacterial activity, SE (Staphylococcus epidermidis), MIC class
[14] = ATCC51559, vancomycin-resistant Enterococcus faecium, read-out: Antibacterial activity, VREFm (vancomycin-resistant EFm), MIC class

Cc1[nH]c(-c2ccc(-c3ccc(C(F)(F)F)cc3)o2)nc1-c1ccc(Cl)cc1 [compound 47]
Antibacterial activity Staphylococcus aureus (MRSA) [1]: 3 (MIC100 of 3-10 μg/ml)
MIC [2, 14]: 20 to 50 µg/mL (≈ 49.7 to 124 µM)
MIC [3]: 20 to 50 µg/mL (≈ 49.7 to 124 µM)
MIC [4]: 20 to 50 µg/mL (≈ 49.7 to 124 µM)
MIC [5]: 20 to 50 µg/mL (≈ 49.7 to 124 µM)
Antibacterial activity, MS (Mycobacterium smegmatis), MIC class [6]: 3 (MIC100 of 3-10 μg/ml)

Cc1[nH]c(-c2ccc(-c3cccc(F)c3C)o2)nc1-c1ccccc1 [compound 60]
MIC [3]: 20 to 50 µg/mL (≈ 60.2 to 150 µM)
Antibacterial activity Streptococcus pneumoniae [7]: 3 (MIC100 of 2-5 μg/ml)
MIC [8]: 1 to 3 µg/mL (≈ 3.01 to 9.03 µM)
Antibacterial activity, MS (Mycobacterium smegmatis), MIC class [6]: 2 (MIC100 of 11-20 μg/ml)
MIC [9]: 1 to 3 µg/mL (≈ 3.01 to 9.03 µM)

Cc1[nH]c(-c2ccc(-c3ccccc3OC(F)(F)F)o2)nc1-c1ccccc1 [compound 18]
MIC [2, 14]: 20 to 50 µg/mL (≈ 52 to 130 µM)
MIC [3]: 20 to 50 µg/mL (≈ 52 to 130 µM)
Antibacterial activity Streptococcus pneumoniae [7]: 3 (MIC100 of 2-5 μg/ml)
MIC [7]: 2 to 5 µg/mL (≈ 5.2 to 13 µM)
MIC [4]: 20 to 50 µg/mL (≈ 52 to 130 µM)
MIC [5]: 20 to 50 µg/mL (≈ 52 to 130 µM)

Cc1[nH]c(-c2ccc(-c3ccc(OC(F)(F)F)cc3Cl)o2)nc1-c1ccc(F)cc1 [compound 51]
MIC [10]: 3 to 10 µg/mL (≈ 6.87 to 22.9 µM)
Antibacterial activity Staphylococcus aureus (MSSA) [11]: 2 (MIC100 of 11-20 μg/ml)
MIC [11]: 11 to 20 µg/mL (≈ 25.2 to 45.8 µM)
MIC [12]: 11 to 20 µg/mL (≈ 25.2 to 45.8 µM)
MIC [9]: 1 to 3 µg/mL (≈ 2.29 to 6.87 µM)

Cc1nc(-c2ccc(-c3ccccc3OC(F)(F)F)o2)[nH]c1-c1cccc(Cl)c1 [compound 21]
Antibacterial activity Staphylococcus aureus (MRSA) [1]: 3 (MIC100 of 3-10 μg/ml)
MIC ([1]; Staphylococcus aureus, MRSA, read-out: Antibacterial activity, MRSA (Staphylococcus aureus MRSA), MIC class): 3 to 10 µg/mL (≈ 7.16 to 23.9 µM)
MIC [2, 14]: 20 to 50 µg/mL (≈ 47.8 to 119 µM)
MIC [3]: 20 to 50 µg/mL (≈ 47.8 to 119 µM)
MIC [10]: 3 to 10 µg/mL (≈ 7.16 to 23.9 µM)
Antibacterial activity Staphylococcus aureus (MSSA) [11]: 3 (MIC100 of 3-10 μg/ml)
MIC [12]: 3 to 10 µg/mL (≈ 7.16 to 23.9 µM)
MIC [5]: 20 to 50 µg/mL (≈ 47.8 to 119 µM)

Cc1[nH]c(-c2ccc(-c3ccccc3OC(F)(F)F)o2)nc1-c1ccc(F)cc1 [compound 23, 4-(4-Fluoro-phenyl)-5-methyl-2-[5-(2-trifluoromethoxy-phenyl)-furan-2-yl]-1H-imidazole]
MIC [2, 14]: 20 to 50 µg/mL (≈ 49.7 to 124 µM)
MIC [3]: 20 to 50 µg/mL (≈ 49.7 to 124 µM)
MIC [4]: 20 to 50 µg/mL (≈ 49.7 to 124 µM)
MIC [5]: 20 to 50 µg/mL (≈ 49.7 to 124 µM)

Cc1[nH]c(-c2ccc(-c3ccccc3OC(F)(F)F)o2)nc1Cc1ccc(Br)cc1 [compound 30, 4-(4-Bromo-benzyl)-5-methyl-2-[5-(2-trifluoromethoxy-phenyl)-furan-2-yl]-1H-imidazole]
MIC [2, 14]: 20 to 50 µg/mL (≈ 41.9 to 105 µM)
MIC [10]: 11 to 20 µg/mL (≈ 23 to 41.9 µM)
MIC [13]: 11 to 20 µg/mL (≈ 23 to 41.9 µM)
MIC [12]: 20 to 50 µg/mL (≈ 41.9 to 105 µM)
MIC [9]: 1 to 3 µg/mL (≈ 2.1 to 6.29 µM)

Cc1nc(-c2ccc(-c3ccc(Cl)c(OC(F)(F)F)c3)o2)[nH]c1-c1ccc(Cl)cc1 [compound 44]
Antibacterial activity Staphylococcus aureus (MRSA) [1]: 2 (MIC100 of 11-20 μg/ml)
MIC [2, 14]: 11 to 20 µg/mL (≈ 24.3 to 44.1 µM)
MIC [3]: 20 to 50 µg/mL (≈ 44.1 to 110 µM)
MIC [7]: < 1 µg/mL
MIC [13]: 11 to 20 µg/mL (≈ 24.3 to 44.1 µM)
MIC [4]: 20 to 50 µg/mL (≈ 44.1 to 110 µM)
MIC [5]: 11 to 20 µg/mL (≈ 24.3 to 44.1 µM)

FC(F)(F)Oc1ccccc1-c1ccc(-c2nc(-c3ccc(Cl)cc3Cl)c[nH]2)o1 [compound 68]
MIC [7]: 6 to 10 µg/mL (≈ 13.7 to 22.8 µM)
Antibacterial activity Staphylococcus aureus (MSSA) [11]: 2 (MIC100 of 11-20 μg/ml)
MIC [11]: 11 to 20 µg/mL (≈ 25 to 45.5 µM)
MIC [12]: 20 to 50 µg/mL (≈ 45.5 to 114 µM)
MIC [9]: 1 to 3 µg/mL (≈ 2.28 to 6.83 µM)

Cc1nc(-c2ccc(-c3ccccc3OC(F)(F)F)o2)[nH]c1-c1ccccc1Cl [compound 19]
MIC ([2]; Enterococcus faecium, ATCC51559, read-out: Antibacterial activity, VREFm (vancomycin-resistant EFm), MIC class): 20 to 50 µg/mL (≈ 47.8 to 119 µM)
MIC [7]: < 1 µg/mL
MIC [8]: 3 to 10 µg/mL (≈ 7.16 to 23.9 µM)
Antibacterial activity, MS (Mycobacterium smegmatis), MIC class [6]: 2 (MIC100 of 11-20 μg/ml)
MIC [9]: 3 to 10 µg/mL (≈ 7.16 to 23.9 µM)

Cc1ccccc1-c1c[nH]c(-c2ccc(-c3ccccc3OC(F)(F)F)o2)n1 [compound 66]
Antibacterial activity Staphylococcus aureus (MRSA) [1]: 2 (MIC100 of 11-20 μg/ml)
MIC [2, 14]: 20 to 50 µg/mL (≈ 52 to 130 µM)
MIC [7]: < 1 µg/mL
Antibacterial activity Staphylococcus aureus (MSSA) [11]: 3 (MIC100 of 3-10 μg/ml)
MIC [12]: 11 to 20 µg/mL (≈ 28.6 to 52 µM)
MIC [5]: 20 to 50 µg/mL (≈ 52 to 130 µM)
MIC [8]: 1 to 3 µg/mL (≈ 2.6 to 7.81 µM)
Antibacterial activity, MS (Mycobacterium smegmatis), MIC class [6]: 2 (MIC100 of 11-20 μg/ml)
MIC [9]: 1 to 3 µg/mL (≈ 2.6 to 7.81 µM)

— patent publication US10456379B2, “Imidazole-based antimicrobial agents” (priority 2014, dated 2019)
